The target in assay [1] is Alpha adrenergic receptor (1a and 1d) (Homo sapiens) (UniProt P35348+P25100). Kind of assay: Relative binding affinity for human adrenergic receptor alpha 1d and 1a. In kind it is protein assay.
Assay [2] has as its target Adrenergic receptors; alpha-1 A & B (Homo sapiens) (UniProt P35348+P35368). Description: Relative binding affinity for human adrenergic receptor alpha 1b and alpha 1a. It counts as protein assay.
For assay [3], the target named is T1, Alpha-1A adrenergic receptor (Homo sapiens, UniProt P35348).
T1 sequence (P35348 whole entry): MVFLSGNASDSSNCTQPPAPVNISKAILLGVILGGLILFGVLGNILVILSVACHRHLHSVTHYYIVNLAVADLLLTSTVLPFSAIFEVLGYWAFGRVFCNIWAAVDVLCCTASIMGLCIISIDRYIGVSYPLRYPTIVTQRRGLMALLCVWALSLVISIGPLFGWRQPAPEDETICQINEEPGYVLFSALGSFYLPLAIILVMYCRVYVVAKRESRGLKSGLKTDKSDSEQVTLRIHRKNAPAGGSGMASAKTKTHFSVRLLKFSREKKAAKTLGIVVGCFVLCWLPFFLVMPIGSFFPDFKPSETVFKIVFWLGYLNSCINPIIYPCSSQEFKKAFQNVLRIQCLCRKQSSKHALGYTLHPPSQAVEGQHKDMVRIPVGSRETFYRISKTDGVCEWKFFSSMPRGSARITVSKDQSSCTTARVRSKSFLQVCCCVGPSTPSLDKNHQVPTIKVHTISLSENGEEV
Description: Binding affinity for human Alpha-1A adrenergic receptor expressed in COS cell membranes.

Assay [4] has as its target T2, Alpha-1B adrenergic receptor (Homo sapiens, UniProt P35368).
T2 sequence (P35368 whole entry): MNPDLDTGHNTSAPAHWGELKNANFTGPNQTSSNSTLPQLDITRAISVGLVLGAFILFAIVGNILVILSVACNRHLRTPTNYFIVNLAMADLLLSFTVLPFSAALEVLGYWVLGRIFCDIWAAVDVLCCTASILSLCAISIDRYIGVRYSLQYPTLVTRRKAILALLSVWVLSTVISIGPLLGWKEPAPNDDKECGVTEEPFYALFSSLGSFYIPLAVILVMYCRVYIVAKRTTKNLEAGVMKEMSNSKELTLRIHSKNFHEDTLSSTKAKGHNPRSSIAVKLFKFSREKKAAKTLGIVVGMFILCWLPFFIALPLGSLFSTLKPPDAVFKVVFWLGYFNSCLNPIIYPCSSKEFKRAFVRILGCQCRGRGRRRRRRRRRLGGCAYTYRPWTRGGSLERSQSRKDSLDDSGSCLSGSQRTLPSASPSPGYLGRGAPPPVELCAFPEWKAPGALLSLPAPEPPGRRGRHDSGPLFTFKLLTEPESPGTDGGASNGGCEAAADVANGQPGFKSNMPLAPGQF
Description: Binding affinity for human Alpha-1B adrenergic receptor expressed in COS cell membranes.

Assay [5] deals with T3, Alpha-1D adrenergic receptor (Homo sapiens, UniProt P25100).
T3 sequence (P25100 whole entry): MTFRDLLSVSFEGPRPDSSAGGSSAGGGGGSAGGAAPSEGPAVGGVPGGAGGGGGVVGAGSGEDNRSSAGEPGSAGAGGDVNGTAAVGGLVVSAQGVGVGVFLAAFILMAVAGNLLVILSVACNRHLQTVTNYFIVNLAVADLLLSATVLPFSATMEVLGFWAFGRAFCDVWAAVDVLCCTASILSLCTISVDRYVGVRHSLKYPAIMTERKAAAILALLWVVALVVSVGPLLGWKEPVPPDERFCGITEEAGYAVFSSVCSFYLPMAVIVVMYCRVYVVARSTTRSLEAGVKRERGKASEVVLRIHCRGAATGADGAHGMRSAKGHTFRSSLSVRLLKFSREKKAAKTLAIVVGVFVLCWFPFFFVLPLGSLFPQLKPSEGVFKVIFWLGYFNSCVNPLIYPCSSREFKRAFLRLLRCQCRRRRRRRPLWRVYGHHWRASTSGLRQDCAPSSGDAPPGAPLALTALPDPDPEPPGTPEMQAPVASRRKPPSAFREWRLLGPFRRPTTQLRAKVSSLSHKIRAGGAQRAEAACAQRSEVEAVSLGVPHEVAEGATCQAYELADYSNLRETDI
Description: Binding affinity for human Alpha-1D adrenergic receptor expressed in COS cell membranes.

For another assay, the species on record is Rattus norvegicus. Description: pA2 data of Compound was evaluated for tissue contractions in isolated rat prostatic tissue strips. The conditions noted are these: read-out: pA2 (converted). It counts as functional.

One may read the Ki as a measure of affinity in units of concentration, obtained from inhibition or displacement. Lower therefore signals a stronger hold on the target. As for `CC(C)Oc1ccccc1N1CCN(CC(=O)CC(=O)CN2CCCCC2=O)CC1`, the results for the Ratio in assay [1] and in assay [2] were 14 and 24, respectively. In addition, the Ki worked out at 417 nM in assay [3], 10000 nM in assay [4] and 6040 nM in assay [5].
Consider `CC(C)Oc1ccccc1N1CCN(C/C=C/C(=O)CN2CCCCC2=O)CC1`, for which the values for the Ratio in assay [1] and in assay [2] were 33 and 295, respectively. Besides, the inhibition constant Ki in assay [3] worked out at 18 nM; in assay [4], 5320 nM; in assay [5], 602 nM.
Regarding `CC(C)Oc1ccccc1N1CCN(CCNC(=O)CN2CCCCCC2=O)CC1` [RWJ-68157], the Ratio was found to be 28 in assay [1] and 196 in assay [2]. The Ki in assay [3] was determined as 18 nM; in assay [4], 3540 nM; in assay [5] it was 505 nM. Moreover, the Kb in the assay filed under Rattus norvegicus is 204 nM.
For `CC(C)Oc1ccccc1N1CCN(CCCNC(=O)CN2CCCCC2=O)CC1` [RWJ-69736], the Ratio in assay [1] was found to be 121; in assay [2] it was 15200. Besides, the Ki in assay [3] came out at 0.66 nM; in assay [4] it was 10000 nM; in assay [5], 80 nM.
On the same counts, the results for `CC(C)Oc1ccccc1N1CCN(CC(O)CC(=O)CN2CCCCC2=O)CC1` (stereo not drawn) are 9, 556, 28 nM, 10000 nM and 253 nM.
On the same counts, the results for `COc1ccccc1N1CCN(CCCNC(=O)CN2CCCCC2=O)CC1` are 102, 102, 98 nM, 10000 nM and 10000 nM.
Regarding `CC(C)Oc1cc(F)ccc1N1CCN(CCNC(=O)CN2CCCCC2=O)CC1`, the Ratio in assay [1] is 54; in assay [2] it was 120. Moreover, the Ki worked out at 83 nM in assay [3], 10000 nM in assay [4] and 4500 nM in assay [5].
On the same counts, the results for `O=C(CN1CCCCC1=O)NCCN1CCN(c2ccc(F)cc2OCC(F)(F)F)CC1` are 41, 77, 129 nM, 10000 nM and 5350 nM.
Regarding `CCOC(=O)C1CCC(=O)N1CC(=O)NCCN1CCN(c2ccccc2OC(C)C)CC1` (stereo not drawn), the Ratio was 13 in assay [1] and 1320 in assay [2]. For the same compound, the Ki in assay [3] was determined as 20 nM; in assay [4], 26300 nM; in assay [5] it was 260 nM. The Kb in the assay listed under Rattus norvegicus is 16.2 nM.
On to `CC(C)Oc1ccccc1N1CCN(CCN(C)C(=O)CN2CCCCC2=O)CC1`, for which the Ratio in assay [1] stood at 12; in assay [2], 187. The Ki in assay [3] came out at 53 nM; in assay [4], 10000 nM; in assay [5] it was 650 nM.
The like results for `CC(C)Oc1ccccc1N1CCN(CCOC(=O)CN2CCCCC2=O)CC1` were, in that order, 3, 59, 38 nM, 2240 nM and 108 nM.
Turning to `CC(C)Oc1ccccc1N1CCN(CCNC(=O)CN2CCCCC2=O)CC1` [RWJ-38063], the Ratio in assay [1] worked out at 43; in assay [2], 5300. In addition, the Ki was found to be 8.7 nM in assay [3], 46100 nM in assay [4] and 372 nM in assay [5]. For the same compound, in the assay filed under Rattus norvegicus, the Kb is 31.6 nM.
